Tests used:
[1] = cited from earlier work
[2] = Solubility of imiquimod in excipient formulation, by HPLC; type: physicochemical; conditions: about 3 mg/mL imiquimod in about 30% w/w PEG 400, 10% w/w glycerin, 3% w/w polysorbate 80 at pH 4
Protocol: (§1) The effect of iontophoresis on the permeation profile of imiquimod across hairless rat skin in vitro was examined. The solubility of imiquimod was tested in various solvent matrices and a formulation with acceptable solubility was employed for further in vitro and in vivo studies as described herein. The following methods were performed.
Using the above methods, various excipients were tested to prepare a formulation with sufficient solubility for imiquimod.

[3] = Skin irritation or redness observed in the in vivo studies; set-up: species or system hairless rat; conditions: any of the in vivo studies
Protocol: (§2) A topical delivery system containing 2% w/w drug formulation (consisting of 20% PEG 400, 10% propylene glycol, 20% Transcutol P, 3% Tween 80 and 10% glycerin; in w/w, final pH 3.6) was employed. The formulation was loaded into a cartridge and iontophoresis (0.2 mA/cm^2, 15 min) was used to deliver the drug into the skin using the hairless rat model as described herein. A passive delivery control was run for comparison. […] Transepidermal water loss (TEWL) measurements were taken to ensure the removal of the stratum corneum.

[4] = In vivo skin depot formation and desorption, 2% w/w imiquimod formulation with Transcutol P; set-up: species or system hairless rat
Protocol: In this example the formation and pharmacokinetics of an imiquimod skin depot following iontophoretic delivery in an in vivo hairless rat model were examined.
as §2

[5] = In vitro permeation across hairless rat skin, Franz diffusion cells, with tape stripping and skin extraction; type: in vitro ADME; conditions: for cumulative amount of drug permeated at 24 hr, passive: passive diffusion
Protocol: as §1
For the in vitro studies, Franz diffusion cells were employed. Hairless rats were euthanized by carbon dioxide asphyxiation and the abdominal skin area was excised and carefully cleaned to remove excess fat. The skin was then mounted onto Franz diffusion cells. Citrate buffer with 20% ethanol was employed as the receptor buffer and the drug formulation was placed in the donor chamber. For iontophoretic delivery, a silver/silver chloride electrode system was used. […] Samples were taken at predetermined time points and the receptor chamber was replenished with fresh receptor buffer accordingly. At completion, the skin samples were dismounted and washed with the receptor buffer to remove excess drug. Tape stripping and skin extraction studies were performed to quantify the amount of the drug in the skin. All the samples were analyzed via HPLC (C18 column; mobile phase: acetonitrile/50 mM ammonium acetate (70:30); injection volume: 10 μl UV detection at 250 nm).

[6] = In vivo skin depot quantification, 0.3% w/w imiquimod formulation
Source text: The effect of iontophoresis on its ability to enhance delivery of 0.3% w/w imiquimod (pH 4.0) formulation in vivo into the stratum corneum and the underlying skin (lower epidermis and dermis) was examined.
Hairless rats were anesthetized using Ketamine and Xylazine. An area on the abdomen was marked and cleaned. Drug formulation was loaded onto an iontophoretic drug cartridge and was secured on the area with tape. For iontophoretic delivery, the cartridge was connected to a current source and a TransQ iontophoretic patch (Iomed) served as the counter electrode. A current density of 0.2 mA/cm^2 was applied for 15 min. At the end of 15 min, the drug loaded cartridges were removed and excess drug on the site was removed. Tape stripping (3M Transpore™ tape) was performed to quantify the drug levels in the stratum corneum. Transepidermal water loss (TEWL) measurements were also taken to ensure the complete removal of the stratum corneum. The rats were then euthanized and the skin samples were excised for further analysis. A skin extraction assay was performed to quantify the drug levels in the underlying skin immediately after 15 min iontophoresis or passive.

[7] = in vivo, 2% w/w, 72 hrs after application
[8] = 0.3% w/w, 0.2 mA/cm^2 for 15 min
[9] = 0.3% w/w, pH 4.0, after about 15 min of treatment

solubility level [2]: about 0.3%
imiquimod delivered to the skin ([4]; 15 min iontophoresis at 0.2 mA/cm^2): approximately 14 ug
total skin drug level, iontophoretic delivery, after 15 min ([4]; in vivo, 2% w/w, pH 3.6, 0.2 mA/cm^2, 15 min): 14.19 ± 2.07 µg
total skin drug level, passive delivery, after 15 min ([4]; in vivo, 2% w/w, pH 3.6, passive, 15 min): 3.26 ± 0.63 µg
drug detection in the stratum corneum at 72 hrs, iontophoretic ([4]; in vivo, 2% w/w, 72 hrs): still detected
drug detection in the underlying skin at 72 hrs, iontophoretic ([4]; in vivo, 2% w/w, 72 hrs): No drug was detected
drug detection in the underlying skin at 72 hrs, passive ([4]; in vivo, 2% w/w, 72 hrs): No drug was detected
total skin drug level, iontophoretic delivery, at 72 hrs [4, 7]: 5.50 ± 2.76 µg
total skin drug level, passive delivery, at 72 hrs [4, 7]: 1.96 ± 0.37 µg
cumulative amount of drug permeated at 24 hours, iontophoresis ([5]; 0.3% w/w formulation, 0.2 mA/cm^2 for 15 min, then passive diffusion to 24 hr): 22.41 μg/cm^2
permeation following iontophoresis ([5]; 0.3% w/w formulation, iontophoresis for 15 min, end of 24 hr): approximately 22 pg/cm
cumulative amount of drug permeated at 24 hr, passive ([5]; 0.3% w/w formulation): 2.24 μg/cm^2
cumulative amount of drug permeated at 24 hr, passive ([5]; 0.3% w/w formulation, listed as imiquimod): approximately 2 μg/cm^2
amount of drug in the underlying skin, iontophoretic ([5]; in vitro, 0.2 mA/cm^2 15 min, end of 24 hr study, skin extraction): 6.31 µg
amount of drug in the stratum corneum, iontophoretic ([5]; in vitro, 0.2 mA/cm^2 15 min, end of 24 hr study, tape stripping): 7.53 µg
amount of drug in the underlying skin, passive ([5]; in vitro, end of 24 hr study, skin extraction): 6.27 µg
amount of drug in the stratum corneum, passive ([5]; in vitro, end of 24 hr study, tape stripping): 1.31 µg
drug in the stratum corneum, iontophoresis [6, 8]: 11.91 µg
drug in the underlying tissue, iontophoresis [6, 8]: 0.591 µg
drug detection in the stratum corneum at 72 hr, iontophoresis ([6]; 0.3% w/w, 72 hr from treatment): still detected
drug detection in the stratum corneum at 72 hr, passive ([6]; 0.3% w/w, 72 hr from treatment): no drug was detected
drug detection in the underlying skin at 72 hr, iontophoresis ([6]; 0.3% w/w, 72 hr from treatment): still detected
drug in the underlying tissue at 72 hr, passive ([6]; 0.3% w/w, 72 hr from treatment): small amount of drug was also present
drug level in the stratum corneum, iontophoresis vs passive ([6]; 0.3% w/w, after 15 min of treatment): 10 fold
drug in the stratum corneum, passive [6, 9]: 1.07 µg
drug in the underlying skin, passive [6, 9]: 0.40 µg
residence time of the depot in the stratum corneum after iontophoresis ([6]; iontophoresis): more than 72 hr
Compound: CC(C)Cn1cnc2c(N)nc3ccccc3c21 [Imiquimod]
log P [1]: 2.7
pKa [1]: 7.3
irritation or redness of the skin [3]: not observed

Source: patent US20100331812A1, “Pharmaceutical Formulations for Iontophoretic Delivery of an Immunomodulator” (Nitric BioTherapeutics, Inc., priority 2009, published 2010)
